Marks after values point to notes of the source that are not given here. Each block holds one substance with its values, some of them ahead of it.
Columns and labels:
[1] = tested on: SKOV3 human ovarian cancer cells; experiment: Disruption of SKOV3 cell adhesion in confluent cultures; type: cell-based; parameters: key to Peptide Disrupts Adhesion of SKOV3 cells: +: yes; −: no; details: for Peptide Disrupts Adhesion of SKOV3 cells: Table 8 summary; for effect on SKOV3 cell adhesion: confluent cultures, concentration not given
Procedure: SKOV3 human ovarian cancer cells (kind gift from Dr. Riaz Farookhi, McGill University, Montreal, Quebec) were cultured in MEM containing 1.25 μg/ml Fungizone, 100 U/ml penicillin 100 μg/ml streptomycin, 0.1 mM nonessential amino acids, 2 mM L-glutamine, 10 μg/ml ml gentamicin and 10% fetal bovine serum. All culture reagents were purchased from GIBCO (Burlington, ON). To obtain confluent cell cultures, 100,000 cells per well were plated onto a 4 well slide (NalgeNunc, Naperville, Ill.) and incubated for 24 h at 37° C., in a humidified atmosphere (5% CO2).
(§1) Depending on their solubility, peptides were dissolved directly in culture medium and added to confluent cell cultures at the indicated concentration, or they were dissolved in dimethylformamide (DMF) to obtain a 100× concentrated solution or in water to obtain a 10× concentrated solution. The peptide stock solutions were further diluted with culture medium to a final working concentration and added to confluent cell cultures. Culture medium containing 1% solvent was used as a control. At the end of the treatment, cells were either examined by phase contrast microscopy, or fixed with 4% paraformaldehyde in PBS and stained with hematoxylin prior to light microscopic examination.
Confluent cultures of SKOV3 cells were incubated in the presence of individual peptides.

[2] = tested on: Human Umbilical Vein Endothelial Cells (HUVEC); experiment: Disruption of HUVEC adhesion; type: cell-based; details: 4.7 mg/ml
Procedure: Human Umbilical Vein Endothelial Cells (HUVEC) and Human Dermal Microvascular Endothelial Cells (HMVEC-d) were purchased from Cambrex Bio Science Walkersville, Inc. Clonetics EGM-2 and EGM-2-MV Bulletkits (Cambrex Bio Science Walkersville, Inc) were used to culture HUVEC and HMVEC-d respectively. Cells (40,000 per well) were plated onto a 4 well slide (NalgeNunc, Naperville, Ill.) and incubated at 37° C., in a humidified atmosphere (5% CO2).
as §1

[3] = molecular target: T1, VE-cadherin/Fc chimeric protein (Homo sapiens, UniProt P33151); experiment: Cadherin specificity: phage ELISA on VE-cadherin/Fc; type: binding; parameters: key: +: Phage bound to the chimeric protein; −: No phage bound to the chimeric protein
T1 construct: purchased R&D Systems, Minneapolis, Minn
T1 sequence (P33151 with tags, fused parts or gaps limits assumed, species assumed): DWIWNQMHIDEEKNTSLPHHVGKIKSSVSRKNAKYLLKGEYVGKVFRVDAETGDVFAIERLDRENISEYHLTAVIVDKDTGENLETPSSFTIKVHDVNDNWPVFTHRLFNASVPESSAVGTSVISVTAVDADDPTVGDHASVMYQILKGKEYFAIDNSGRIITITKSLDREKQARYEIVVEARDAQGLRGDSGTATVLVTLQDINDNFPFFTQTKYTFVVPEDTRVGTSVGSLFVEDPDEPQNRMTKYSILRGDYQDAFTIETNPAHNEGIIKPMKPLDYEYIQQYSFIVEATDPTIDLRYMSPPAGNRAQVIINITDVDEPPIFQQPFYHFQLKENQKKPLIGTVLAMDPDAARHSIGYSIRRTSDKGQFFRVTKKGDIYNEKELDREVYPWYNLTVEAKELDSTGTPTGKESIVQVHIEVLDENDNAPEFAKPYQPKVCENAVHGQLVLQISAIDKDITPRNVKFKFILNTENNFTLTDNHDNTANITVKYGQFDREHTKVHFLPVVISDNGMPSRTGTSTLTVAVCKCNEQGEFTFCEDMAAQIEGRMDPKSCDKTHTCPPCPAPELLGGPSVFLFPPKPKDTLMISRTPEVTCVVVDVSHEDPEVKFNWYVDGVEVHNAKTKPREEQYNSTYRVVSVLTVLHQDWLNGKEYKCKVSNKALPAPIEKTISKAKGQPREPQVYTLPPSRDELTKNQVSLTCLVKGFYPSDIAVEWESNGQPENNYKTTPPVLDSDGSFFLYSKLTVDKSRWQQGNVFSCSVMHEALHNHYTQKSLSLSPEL
Procedure: (§2) The binding of each clone to the cadherin/Fc chimeric proteins was confirmed by ELISA. Wells of ProBind microtiter plates (Falcon) were coated with either N-cadherin/Fc or E-cadherin/Fc chimeric protein (100 ng/well) or human IgG1 (which contains the Fc fragment) (100 ng/well). After blocking the nonspecific sites with TBS containing 3% BSA and 1.2 mM CaCl2 for 1 h at 37° C., phage clones (10^9 pfu) diluted in TBST containing 3% BSA and 1.2 mM CaCl2 (100 μl/well). Non-coated wells were also used to exclude any phage that bound to the plastic surface. After 1 h incubation at room temperature, wells were washed 3 times with TBST containing 3% BSA and 1.2 mM CaCl2. M13 phage without any insert were used to control the non-specific binding of the phage itself to the target. Monoclonal anti-M13 antibody conjugated to horseradish peroxidase (Amersham Biosciences, Piscataway, N.J.) was diluted in TBST containing 3% BSA and 1.2 mM CaCl2 (1:2,000) and added to each well (100 μl/well). After 1 h incubation at room temperature, wells were washed three times with TBST containing 3% BSA and 1.2 mM CaCl2 and once with TBS containing 1.2 mM CaCl2. Horseradish peroxidase substrate, TMB (Sigma), was added to each well (100 μl/well and after color development the reaction was stopped by addition of 100 μl 0.5 M sulphuric acid to each well. The intensity of the color was measured at 450 nm.
(§3) The phage clones shown to bind to the N-cadherin/Fc chimeric protein by ELISA were also evaluated for their ability to bind to E-cadherin/Fc and VE-cadherin/Fc chimeric proteins. The phage clones shown to bind to the E-cadherin/Fc chimeric protein by ELISA were also evaluated for their ability to bind to N-cadherin/Fc and VE-cadherin/Fc chimeric proteins. The same ELISA protocol described in the previous section was used to perform this evaluation with the exception that the wells were coated with either 100 ng N-cadherin/Fc, E-cadherin/Fc or VE-cadherin/Fc chimeric protein (R&D Systems, Minneapolis, Minn.).

[4] = molecular target: T2, N-cadherin/Fc chimeric protein (Homo sapiens, UniProt P19022); experiment: Cadherin/Fc binding assay: phage ELISA on N-cadherin/Fc; parameters: key to ELISA Phage Binding to N-Cadherin/Fc Chimeric Protein 1.2 mM calcium / ELISA Phage Binding to N-Cadherin/Fc Chimeric Protein 2 mM EDTA / ELISA Phage Binding to Cadherin/Fc Chimeric Proteins N−: +: Phage bound to the chimeric protein; −: No phage bound to the chimeric protein; details: for ELISA Phage Binding to Cadherin/Fc Chimeric Proteins N−: Table 7, Ph.D.-12 clones selected on E-cadherin/Fc
T2 construct: extracellular domain of human N-cadherin (Asp160-Ala724); purchased R&D Systems, Minneapolis, Minn
T2 sequence (P19022 160-724): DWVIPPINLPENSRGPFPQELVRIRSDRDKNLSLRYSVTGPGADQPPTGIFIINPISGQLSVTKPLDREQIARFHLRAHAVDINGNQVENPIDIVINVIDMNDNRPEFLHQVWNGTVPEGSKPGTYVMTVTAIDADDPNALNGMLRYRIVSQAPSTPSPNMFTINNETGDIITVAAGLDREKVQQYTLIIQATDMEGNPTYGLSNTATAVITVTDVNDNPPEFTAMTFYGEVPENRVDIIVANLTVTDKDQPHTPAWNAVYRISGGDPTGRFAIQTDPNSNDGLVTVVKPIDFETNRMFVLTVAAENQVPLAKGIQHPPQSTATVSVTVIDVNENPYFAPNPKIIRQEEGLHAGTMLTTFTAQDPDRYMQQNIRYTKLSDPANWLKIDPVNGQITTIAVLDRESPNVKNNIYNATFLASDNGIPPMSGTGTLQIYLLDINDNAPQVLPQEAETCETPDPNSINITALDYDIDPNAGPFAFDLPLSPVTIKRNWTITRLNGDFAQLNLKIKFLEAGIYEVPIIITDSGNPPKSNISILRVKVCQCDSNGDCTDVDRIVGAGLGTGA
Source text: (§4) The peptide libraries, Ph.D.-C7C™ and Ph.D.-12™ (New England BioLabs) were used in this study. These libraries are composed of 2×10^9 randomized 7 amino acid sequences flanked by cysteine residues and linear 12 amino acid sequences, respectively. The amino acid sequences are incorporated into the minor coat protein, pIII, of M13 phage. The N-cadherin/Fc chimeric protein (R&D Systems, Minneapolis, Minn.) consists of the extracellular domain of human N-cadherin (Asp160-Ala724) and the Fc region of human IgG1. The E-cadherin/Fc chimeric protein (R&D Systems, Minneapolis, Minn.) consists of the extracellular domain of human E-cadherin (Asp155-Ile707) and the Fc region of human IgG1.
The binding of each clone to the cadherin/Fc chimeric proteins was confirmed by ELISA. Wells of ProBind microtiter plates (Falcon) were coated with either N-cadherin/Fc or E-cadherin/Fc chimeric protein (100 ng/well) or human IgG1 (which contains the Fc fragment) (100 ng/well). […] Non-coated wells were also used to exclude any phage that bound to the plastic surface. […] M13 phage without any insert were used to control the non-specific binding of the phage itself to the target. […] […] Horseradish peroxidase substrate, TMB (Sigma), was added to each well (100 μl/well and after color development the reaction was stopped by addition of 100 μl 0.5 M sulphuric acid to each well. The intensity of the color was measured at 450 nm.
as §3

[5] = molecular target: T3, E-cadherin/Fc chimeric protein (Homo sapiens, UniProt P12830); experiment: Cadherin/Fc binding assay: phage ELISA on E-cadherin/Fc; parameters: key: +: Phage bound to the chimeric protein; −: No phage bound to the chimeric protein
T3 construct: extracellular domain of human E-cadherin (Asp155-Ile707); purchased R&D Systems, Minneapolis, Minn
T3 sequence (P12830 155-707): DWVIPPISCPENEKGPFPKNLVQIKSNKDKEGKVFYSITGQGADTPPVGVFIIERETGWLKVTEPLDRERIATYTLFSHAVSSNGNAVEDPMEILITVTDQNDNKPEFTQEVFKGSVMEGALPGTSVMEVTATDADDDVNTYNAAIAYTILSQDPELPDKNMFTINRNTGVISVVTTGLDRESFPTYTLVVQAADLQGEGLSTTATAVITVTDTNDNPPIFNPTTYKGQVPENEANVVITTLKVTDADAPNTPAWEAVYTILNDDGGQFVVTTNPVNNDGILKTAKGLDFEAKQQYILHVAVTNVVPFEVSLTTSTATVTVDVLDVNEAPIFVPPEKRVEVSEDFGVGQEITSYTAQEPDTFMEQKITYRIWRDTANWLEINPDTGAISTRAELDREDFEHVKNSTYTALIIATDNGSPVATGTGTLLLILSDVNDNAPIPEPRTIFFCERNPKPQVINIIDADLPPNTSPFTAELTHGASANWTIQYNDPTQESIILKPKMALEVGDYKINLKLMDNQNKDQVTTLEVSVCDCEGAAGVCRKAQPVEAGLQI
Source text: as §4, §2, §3

[6] = Table 2, Ph.D.-C7C library clones
[7] = Table 7, Ph.D.-12 clones selected on E-cadherin/Fc
[8] = Table 4, Ph.D.-12 library clones

Substance: H-AELRVSSP-NH2 [reference compound]
- Peptide Disrupts Adhesion of SKOV3 cells [1]: −
- effect on SKOV3 cell adhesion [1]: had no biological activity

Substance: H-SWTLYTPSGQSK-(succinyl-PEG5000-OMe)—NH2 (H-SWTLYTPSGQSK-NH2; also: succinyl-PEG5000-OMe attached, site not given here)
- activity on HUVEC adhesion [2]: strong activity
- incubation time within which HUVEC adhesion was disrupted [2]: within one hour

Substance: H-RYVCVGAH-NH2 [reference compound]
- Peptide Disrupts Adhesion of SKOV3 cells [1]: −
- effect on SKOV3 cell adhesion [1]: had no effect on cell adhesion

Substance: WEVRLTEKC [Nc a3]
- ELISA Phage Binding to Cadherin/Fc Chimeric Proteins VE− [3, 6]: −
- ELISA Phage Binding to N-Cadherin/Fc Chimeric Protein 1.2 mM calcium [4, 6]: +
- ELISA Phage Binding to N-Cadherin/Fc Chimeric Protein 2 mM EDTA [4, 6]: −
- ELISA Phage Binding to Cadherin/Fc Chimeric Proteins E− [5, 6]: −

Substance: EWMIHYDSALTS [Nc 12-a6]
- ELISA Phage Binding to Cadherin/Fc Chimeric Proteins VE− [3, 8]: −
- ELISA Phage Binding to N-Cadherin/Fc Chimeric Protein 1.2 mM calcium [4, 8]: +
- ELISA Phage Binding to N-Cadherin/Fc Chimeric Protein 2 mM EDTA [4, 8]: +
- ELISA Phage Binding to Cadherin/Fc Chimeric Proteins E− [5, 8]: +

Substance: SWELYYPLRANL [Ec 12-a2]
- ELISA Phage Binding to Cadherin/Fc Chimeric Proteins VE− [3, 7]: −
- ELISA Phage Binding to Cadherin/Fc Chimeric Proteins N− [4]: +
- ELISA Phage Binding to Cadherin/Fc Chimeric Proteins E− [5, 7]: +

Other lines, results leading:

- ELISA Phage Binding to Cadherin/Fc Chimeric Proteins VE− [3, 7]: −
- ELISA Phage Binding to Cadherin/Fc Chimeric Proteins N− [4]: +
- ELISA Phage Binding to Cadherin/Fc Chimeric Proteins E− [5, 7]: +
Substance: QWTITYPKPPAL [Ec 12-13]

- ELISA Phage Binding to Cadherin/Fc Chimeric Proteins VE− [3, 7]: −
- ELISA Phage Binding to Cadherin/Fc Chimeric Proteins N− [4]: +
- ELISA Phage Binding to Cadherin/Fc Chimeric Proteins E− [5, 7]: +
Substance: GWTVFYPDNLRP [Ec 12-18]

- ELISA Phage Binding to Cadherin/Fc Chimeric Proteins VE− [3, 8]: −
- ELISA Phage Binding to N-Cadherin/Fc Chimeric Protein 1.2 mM calcium [4, 8]: +*
- ELISA Phage Binding to N-Cadherin/Fc Chimeric Protein 2 mM EDTA [4, 8]: +
- ELISA Phage Binding to Cadherin/Fc Chimeric Proteins E− [5, 8]: −**
Substance: HWYITTGPVREK [Nc 12-01]
